Consider five compounds from patent US6790862B2 (priority 1999, dated 2004).

Where two headings read alike, the source gives them in different places.

For data set [1], the system named is H441 (human lung adenocarcinoma). The data set can be described thus: MTT cytotoxicity assay, 96 hours exposure. Format: cell-based. The conditions noted are these: H441; comparators at their respective LD50s. The procedure:
The cytotoxicity of Peloruside A was tested in five cell lines:
H441 (human lung adenocarcinoma)
32D (murine myeloid) generally in accordance with the MTT assay of Burres et al., J. Cancer Research (1989), 49, 2935-2940.
Briefly, cell lines were maintained in Dulbecco's modified Eagle's medium: F12 medium (50:50) (Gibco) supplemented with 10% fetal calf serum (Gibco), […] Penicillin G, and […] streptomycin sulfate. After 96 hours exposure to the toxin, cell viability was determined by the MTT calorimetric assay. […] Data were analysed with the SYSTAT statistical program using a non-linear model fit, and IC50 values were calculated using a Logit-Log plot.

In another data set the test system is HL-60 cells. Description: MTT cell proliferation assay. The conditions noted are these: for IC50: Homo sapiens. Format: cell-based, human. The protocol:
Tumorigenic and non-tumorigenic cell lines were cultured as previously described in Hood K. A., West L. M., Northcote P. T., Berridge M. V., Miller J. H., Apoptosis (2001), 6, 207-219. These cell lines included HL-60 and KS62, two tumorigenic human myeloid leukemic cell lines, 32D clone 3 (32D), a non-tumorigenic murine myeloid cell line, 32D-ras, the ras-transformed derivative of 32D, H441, a human lung adenocarcinoma cell line, SH-SY5Y, a human neuroblastoma cell line, and LLC-PK1, a non-tumorigenic pig kidney cell line. IC50 values for Peloruside A in the different cell lines were determined using the tetrazolium-based MTT cell proliferation assay as previously described (Hood K. A et al.).

Another data set relates to b-tubulin in HL-60 cells. Description: in situ tubulin polymerization, immunoblot of soluble and particulate fractions. Format: cell-based, human. The conditions noted are these: 5 h; for effect on proportion of soluble to polymerized tubulin: HL-60, different concentrations. From the text: A simple in situ cellular assay as described by Giannakakou P., Gussio R., Nogales E., Downing K. H., Zaharevitz D., Bollbuck B., Poy G., Sackett D., Nicolaou K. C., Fojo T., Proc. Nat. Acad. Sci. (USA) (2000), 97, 2904-2909 was used in which the shift in tubulin from depolymerized to polymerized forms was followed by electrophoresis and Western blotting of centrifuged particulate and cytosolic fractions. To summarize, 2×10^6 untreated and drug-exposed HL-60 cells were lysed by exposure for 5 min at 37° C. to […] of hypotonic buffer (1 mM MgCl2, 2 mM EGTA, 1% Nonidet P-40, 2 mM phenylmethylsulfonyl fluoride, 1 mg/mL aprotinin, 2 mg/mL pepstatin, and 20 mM Tris-HCl, pH 6.8) and the particulate fraction separated from the soluble cytosolic fraction by high speed centrifugation for 10 min in a bench-top centrifuge. Samples labeled ‘0 min’ received drug immediately before collection of the cells. The processing of the cells to the critical centrifugation step required approximately 30 min. The pellet was dissolved in […] of sample buffer (8 M urea, 4% CHAPS, 3 M thiourea, and 40 mM DTT). Twenty mL of loading buffer was added to each […] sample, the samples were vortexed and then boiled for 5 min. Twenty mL of each sample was loaded on an SDS/10% polyacrylamide gel and resolved by electrophoresis. b-Tubulin bands were identified by Western blotting using b-tubulin primary antibody ( 1/1000 dilution) following standard immunoblotting procedures with detection by enhanced chemiluminescence (Lumi-Light, Roche).
Scale bar (lower right)=500 nm.
A general note: Immunoblotting shows a protein as a band on a membrane.

The conditions of data set [2]: indirect, fragment-based computational calculation; cited from earlier work.
The subject of a further data set is HeLa cells. Description: anti-metabolic activity, WST-1 reduction. As to conditions: 12-24 mM. Format: cell-based. The protocol:
(§1) The effect of Peloruside A and paclitaxel on superoxide production was determined using human peripheral blood neutrophils activated with […] N-formyl-met-leu-phe (fMLP) as described previously (Tan A. S., Berridge M. V., J. Immunol. Meth. (2000), 238, 59-68). In this microplate assay, the cell-impermeable tetrazolium salt, WST-1, is reduced to its soluble formazan and dye reduction measured at 450 nm as an initial rate over 10-20 min. Samples were equilibrated with cells for 3 min at 37° C. and the reaction initiated by adding fMLP. Measurement of anti-metabolic activity followed a similar microplate protocol except that HeLa cells were used instead of neutrophils, cells were not activated with fMLP, and the intermediate electron acceptor, 1-methoxy phenazine methosulfate at 25 mM, was included in the WST-1 reagent to facilitate detection of low potential electrons from the plasma membrane.
(Tetrazolium assays rely on reduction of a dye to a coloured formazan, in cell work by metabolically active cells.)

The test system of data set [3] is human peripheral blood neutrophils. The data set can be described thus: fMLP-activated respiratory burst, superoxide production (WST-1). Further details: dose or concentration left out as unconfirmed. Format: cell-based. The procedure:
as §1

The subject of data set [4] is H441 cells. Description: cell cycle by flow cytometry (PI) and mitotic index. The conditions noted are these: H441, 24 h. Format: cell-based, human. Further details: metaphase-arrested cells (mitotic index): dose or concentration left out as unconfirmed. The procedure: Using standard methodology, the DNA of cells was stained with propidium iodide (PI), and the proportion of cells in different phases of the cell cycle was monitored by flow cytometry. Briefly, H441 cells were treated with […] for 24 h. Adherent cells were collected by trypsinization and added to those in suspension. The cells were then fixed with cold 70% ethanol overnight and stained with PI solution consisting of 45 mg/mL PI, 10 mg/mL RNaseA, and 0.1% glucose. After a 2 h incubation at RT, samples were analysed in a FACSort flow cytometer (Becton Dickinson).
Cells were treated with […] Peloruside A or paclitaxel, stained with PI, and counted by flow cytometry. For the mitotic index, cells were treated for 24 h with different concentrations of Peloruside A or paclitaxel, and the number of cells in mitosis divided by the total number of cells (n=at least 400 cells counted in each of 3 preparations).

For data set [5], the system named is H441 cells. The data set can be described thus: cellular morphology, phase-contrast microscopy. Format: cell-based, human. The procedure:
Phase-contrast photomicrographs of H441 human lung adenocarcinoma cells: untreated control cells (A) and cells exposed for 48 h to 100 nM Peloruside A (B) or 100 nM paclitaxel (C). Note the intracellular fiber bundles in approximately 10% of the treated cells and the numerous micronuclei, each with a dark central spot of condensed DNA. Scale bar=[…].

The next data set relates to purified tubulin. The data set can be described thus: in vitro tubulin polymerization and electron microscopy. Format: biochemical. Further details: polymerization of purified tubulin in solution: dose or concentration left out as unconfirmed. The protocol:
Purified tubulin (approximately 7.5 mg protein) containing approximately 15% microtubule-associated proteins was obtained from Sigma and reconstituted in 0.1 M MES buffer, pH 6.8, 1 mM EGTA, 0.1 mM EDTA, 0.5 mM MgCl2, 1 mM DTT, 0.1 mM GTP, 1 mg/mL leupeptin, 1 mg/mL aprotinin, and 100 mg/mL sucrose as stabilizer. The reconstituted tubulin was incubated at 37° C. for 30 min in the presence of […] Peloruside A or […] paclitaxel. Samples […] were pipetted onto 400-mesh carbon- and Formvar-coated copper grids and left for 2 min at RT before blotting with filter paper. Each grid was stained with 5 mL of 1% uranyl acetate for 3 min at RT, then blotted with filter paper. Grids were air-dried overnight before examination in a Philips CM100 transmission electron microscope.
(B) Immunoblots following exposure to […] Peloruside A and […] paclitaxel for varying lengths of time. (C) Transmission electron micrograph of microtubules formed following treatment of purified soluble tubulin with […] Peloruside A for 30 min at 37° C. Scale bar (lower right)=500 nm.

The test system of the next data set is K562 cells. The data set can be described thus: cellular morphology. Format: cell-based, human. As to conditions: K562, 2 days exposure, 100 nM.

As to pateamine [reference compound], the “nuclei break up into small vessicles (nuclear blebbing)” value in [1] is “not been observed”.
In the case of `CCC(/C=C(/C)C1C[C@H](OC)C[C@@H](O)C(C)(C)C(O)C(O)C(OC)C[C@H](O)C[C@H](OC)[C@@H](O)C(=O)O1)CO` (stereo partly shown) [Peloruside A reduction product], the “increase of IC50 relative to Peloruside A” value with HL-60 cells (HL-60 cells) is listed as 31 fold. Moreover, 221 ± 24 nM corresponded to half-maximal inhibition in the data set with HL-60 cells (HL-60) (IC50). Moreover, in the data set with b-tubulin in HL-60 cells, the “effect on proportion of soluble to polymerized tubulin” value was “no significant effect”.
Regarding `C=C/C=C\[C@H](C)[C@H](OC(N)=O)[C@@H](C)[C@H](O)[C@@H](C)C/C(C)=C\[C@H](C)[C@@H](O)[C@@H](C)/C=C\[C@@H](O)C[C@@H]1OC(=O)[C@H](C)[C@@H](O)[C@H]1C` [Discodermolide, discodermolide], in data set [2], the “solubility relative to paclitaxel” value is listed as 160 fold.
Consider `C=C1C[C@](OC)([C@H](O)C(=O)N[C@H]2OCO[C@H]3[C@@H]2O[C@H](C[C@H](O)CO)C(C)(C)[C@@H]3OC)O[C@H](C)[C@@H]1C` [mycalamide A, reference compound], for which the “nuclei break up into small vessicles (nuclear blebbing)” value in data set [1] was “not been observed”.
With `CC(=O)O[C@H]1C(=O)[C@@]2(C)[C@H]([C@H](OC(=O)c3ccccc3)[C@]3(O)C[C@H](OC(=O)[C@H](O)[C@@H](NC(=O)c4ccccc4)c4ccccc4)C(C)=C1C3(C)C)[C@]1(OC(C)=O)CO[C@@H]1C[C@@H]2O` [paclitaxel, Paclitaxel, reference compound], the concentration for half-maximal inhibition (IC50) (as a rule, the midpoint of a concentration-inhibition curve) with HL-60 cells (HL-60 cells, ± S.E.M., read-out: IC50) is 22 ± 8 nM. Further, the “effect on WST-1 reduction” value in the data set on HeLa cells is “little effect”. Besides, in the data set with b-tubulin in HL-60 cells (HL-60, 100 nM), the “b-tubulin remaining in the soluble fraction” value was “No detectable b-tubulin remained in the soluble fraction”. Besides, the “effect on proportion of soluble to polymerized tubulin” value in the data set on b-tubulin in HL-60 cells is on record as “dose-dependent shifts of soluble tubulin to the particulate fraction”. Also, the “effect on neutrophil activation” value in [3] is listed as “no effect”. Moreover, in the data set with H441 cells [4], the cell cycle arrest entry is “partial cell cycle arrest at G2/M” and the “metaphase-arrested cells (mitotic index)” value amounted to 64±4%. Besides, the “treated cells with intracellular fiber bundles” value in the data set with H441 cells [5] (H441, 48 h, 100 nM) was “approximately 10%”. Moreover, the micronuclei result with H441 cells [5] (H441, 2 days exposure, 100 nM) is on record as “multiple micronuclei were observed”. In addition, the intracellular fiber bundles entry with H441 cells [5] (H441, phase-contrast microscopy) was “large intracellular fiber bundles were observed”. In addition, the “polymerization of purified tubulin in solution” value with purified tubulin (30 min, 37° C., electron microscopy) is recorded as “polymerize in solution into typical, long, straight microtubules”. The “stability of induced microtubules” value with purified tubulin (at 0C) is on record as “stable”. The micronuclei entry with K562 cells is “multiple micronuclei were observed”.
